Experimental data reported in patent publication US20240398970A1, “B7-H3 TARGETING ANTIBODY-DRUG CONJUGATE, AND PREPARATION METHOD THEREFOR AND USE THEREOF” (priority 2020, published 2024).
Numbered stars: 1 amine (or outer) side, 2 acyl side, 3 side chain; on linkers, the order of the positions; unused ones are H or OH. Square brackets hold non-standard residues; d marks the D form. Peptide text beside a SMILES is read from it. * marks the point of attachment. X1 = CC[C@@]1(O)C(=O)OCc2c1cc1n(c2=O)Cc2c-1nc1cc(F)c(C)c3c1c2C(N*)CC3; Hexanoyl(6-maleimido) = O=C1C=CC(=O)N1CCCCCC(=O)*; NHCH2OCH2CO = O=C(COCN[*:1])[*:2]

Experiments:
NCI-N87 cell line = assay: Killing activity on NCI-N87 before and after enzyme digestion by cathepsin B system; type: cell-based; conditions: NCI-N87, 144 hours, after cathepsin B system pH 5.0, 37° C., 4 hours; read-out: IC50 (based on SN-38 equivalent) After Enzyme Digestion
Description: NCI-N87 cell line was selected as the experimental cell lines. After the sample was incubated in cathepsin B system (100 mM sodium acetate-acetic acid buffer, 4 mM dithiothreitol, pH 5.0) at 37° C. for 4 hours, the obtained sample was diluted with culture medium to different concentrations. 8 concentrations (1.5 to 10-fold dilution) were set from 70 nM to 0.003 nM of SN-38 concentration. […] The IC50 value was calculated by reading the […] data after chemical luminescent staining with CellTiter-Glo® Luminescent Cell Viability Assay.

cathepsin B = cathepsin B (Homo sapiens, UniProt P07858); assay: In vitro enzyme digestion of linker-drug conjugates; type: in vitro ADME; conditions: pH 5.0 to 7.0
Description: The linker-drug conjugate (LE14 and GGFG-Dxd) was co-incubated with cathepsin B in three different pH (5.0, 6.0, 7.0) buffers. Samples were taken at different time points and entered into a high-performance liquid chromatography-mass spectrometry instrument. The external standard method (with DXD as the external standard) was used to determine the release percentage of the drug.

[1] = Coupling of linker-drug conjugates with other/different antibodies; type: physicochemical; conditions: coupling with antibodies other than or including FDA016

`CCc1c2c(nc3ccc(O)cc13)-c1cc3c(c(=O)n1C2)COC(=O)[C@]3(O)CC` [SN-38, 7-ethyl-10-hydroxycamptothecin] gave an IC50 (NCI-N87 cell line) of 7.45 nM.
For `CC[C@@]1(O)C(=O)OCc2c1cc1n(c2=O)Cc2c-1nc1cc(F)c(C)c3c1c2C(NC(=O)COCNC(=O)CNC(=O)[C@H](Cc1ccccc1)NC(=O)CNC(=O)CNC(=O)CCCCCN1C(=O)C=CC1=O)CC3` (stereo partly shown) [GGFG-Dxd] ({Hexanoyl(6-maleimido)}-GGFG[NHCH2OCH2CO]-X1), the “Speed of enzyme digestion” value (cathepsin B) was “slow speed of enzyme digestion”, the “Aggregation ratio when coupled with other/different antibodies” value [1] was “high aggregation ratio” and the “Precipitation when coupled with other/different antibodies” value [1] was “produced precipitation”.
